Reference: US12011447B2, “Pharmaceutical composition for treating thyroid cancer comprising tyrosine kinase activity inhibitor as active ingredient” (Kyungpook National University Industry-Academic Cooperation …, priority 2017, dated 2024)

Columns and labels:
[1] = system: NIS (sodium iodide symporter); assay: Western blot of endogenous NIS protein (total, membrane, cytosolic); type: cell-based, human
Experimental: (§1) 8505C-PNIS-PCMV cells were treated with TKI-0266 and incubated for 24 hours, and then the cell pellet was washed twice with cold phosphate-buffered saline (hereinafter referred to as PBS). An RIPA buffer (Thermo Fisher Scientific, USA) containing a protease/phosphatase cocktail inhibitor kit (Thermo Fisher Scientific) was added to the cell pellet to lyse the cells. The lysed cells were gently vortexed three times at a time interval, and centrifuged at 13000xg at 4° C. to isolate a soluble protein. The isolated protein was quantified using a BCA protein assay kit (Thermo Fisher Scientific).
Membrane protein and cytosolic protein were isolated using Mem-PET™ plus kit (Thermo Fisher scientific) according to the manufacturer's protocols. Briefly, the collected cell pellet was washed with a cell wash solution and centrifuged at 300xg for 5 minutes, and this washing and centrifugation process was repeated two times. After centrifugation, the supernatant was discarded, and a permeabilization buffer was added to the cell pellet, followed by vortexing. Thereafter, the cell pellet was left to stand at 4° C. for 10 minutes with continuous stirring. After centrifugation, the supernatant containing cytosolic protein was collected, and a solubilization buffer was added to the remaining cell pellet which was then left to stand at 4° C. for 10 minutes with continuous stirring. After centrifugation again at 300xg for 5 minutes, the membrane protein was transferred into a fresh tube.
(§2) Equal amounts of proteins were separated by 10% SDS-PAGE (sodium dodecyl sulfate-polyacrylamide gel electrophoresis), and then the proteins were transferred to PVDF membranes (Millipore, USA). The PVDF membrane was blocked with 3% BSA (bovine serum albumin) in TBS containing Tween-20 (TBS-T) for 1 hour, and incubated with primary antibodies in 0.5% BSA overnight at 4° C. The next day, the PVDF membrane was incubated with HRP-conjugated secondary antibodies at room temperature for 1 hour, and washed three times with TBS-T. The protein bands were visualized using ECL detection reagent (GE Healthcare Life Sciences, Italy) and the Fusion FX chemiluminescence analyzer system (Vilber lourmat, France). […]

p-AKT = assay: Western blot of phosphorylated AKT; type: cell-based, human; conditions: 8505C-PNIS-PCMV cells
Experimental: as §1, §2

p-ERK = assay: Western blot of phosphorylated ERK; type: cell-based, human; conditions: 8505C-PNIS-PCMV cells
Experimental: as §1, §2

[2] = system: TPO, TSHR, Tg, TTF-1 and Pax-8; assay: Western blot of thyroid-specific proteins; type: cell-based, human; conditions: 8505C-PNIS-PCMV cells
Experimental: as §1, §2

NIS = assay: Immunohistochemistry of NIS in tumor tissue; type: in vivo, Balb/c nude mice; conditions: xenograft tumor sections
Text: At the end of the experiment, the mice were sacrificed, and the tumors were isolated from the mouse's right flank and fixed overnight with 4% formalin. The isolated tumors were embedded in paraffin, sectioned to a 4-μm thickness, and mounted on slides. The tumor sections on the slides were de-paraffinized and stained with hematoxylin & eosin. For immunohistochemistry, NIS (Thermo Fisher Scientific; diluted at 1:200) and cleaved caspase-3 (Cell signaling; diluted at 1:200) antibodies were used.

Compound: Cc1cc2c(N(C)C3CCCCC3)ncnc2s1 [TKI-0266]
- expression of endogenous NIS protein ([1]; 8505C-PNIS-PCMV cells, 24 hours, Western blot): significantly increased
- treatment concentration with the highest NIS protein expression ([1]; 8505C-PNIS-PCMV cells, Western blot): 12.5 µM
- expression of cytosolic NIS protein ([1]; cytosolic protein fraction): uptick
- expression of membrane NIS protein ([1]; membrane protein fraction): increased mainly in the cell membrane
- level of phosphorylated-AKT (p-AKT) protein vs vehicle (p-AKT): little difference
- level of phosphorylated ERK (p-ERK) protein (p-ERK): significantly decreased
- expression of TPO, TSHR, Tg, TTF-1 and Pax8 proteins [2]: increased
- expression of Tg, TPO, Pax8, TSHR, NIS and TTF-1 as treatment concentration increased ([2]; FIG. 12): increased
- expression of NIS-specific protein in tumor tissue (immunohistochemistry) (NIS): high
